Results reported in ChEMBL document CHEMBL1255518, “Novel pyrrole- and 1,2,3-triazole-based 2,3-oxidosqualene cyclase inhibitors” (Bioorg Med Chem Lett, 2010).

Legend:
[1] = target: T1, Lanosterol synthase (Homo sapiens, UniProt P48449); experiment: Inhibition of OSC
T1 sequence (P48449 whole entry): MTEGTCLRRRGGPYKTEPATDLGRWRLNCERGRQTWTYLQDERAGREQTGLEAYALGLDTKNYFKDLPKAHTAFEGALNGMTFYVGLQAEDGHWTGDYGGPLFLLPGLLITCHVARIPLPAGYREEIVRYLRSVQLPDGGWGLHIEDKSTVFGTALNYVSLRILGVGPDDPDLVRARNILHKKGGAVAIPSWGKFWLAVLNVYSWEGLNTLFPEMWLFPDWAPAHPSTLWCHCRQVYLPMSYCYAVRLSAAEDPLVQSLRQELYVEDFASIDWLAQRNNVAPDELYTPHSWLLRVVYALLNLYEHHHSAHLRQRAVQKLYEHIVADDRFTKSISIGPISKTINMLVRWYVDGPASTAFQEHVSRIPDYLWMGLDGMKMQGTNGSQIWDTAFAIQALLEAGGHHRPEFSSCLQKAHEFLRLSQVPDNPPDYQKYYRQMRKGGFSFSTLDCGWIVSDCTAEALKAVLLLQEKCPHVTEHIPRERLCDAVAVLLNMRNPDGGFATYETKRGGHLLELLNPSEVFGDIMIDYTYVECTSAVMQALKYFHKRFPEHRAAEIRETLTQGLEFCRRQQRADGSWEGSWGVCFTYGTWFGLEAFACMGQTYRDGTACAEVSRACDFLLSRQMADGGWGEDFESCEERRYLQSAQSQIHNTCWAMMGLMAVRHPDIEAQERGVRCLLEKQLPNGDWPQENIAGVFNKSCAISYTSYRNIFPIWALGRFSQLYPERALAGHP

[2] = target: T2, Lanosterol synthase (Homo sapiens) (UniProt P48449); experiment: Inhibition of OSC at 20 uM
T2 sequence (whole entry): T1 sequence (P48449 whole entry)

SMILES	IC50 [1]	inhibition [2]
COc1ccc(-n2c(C)cc(CNC(=O)c3ccc(CN(C)C)cc3)c2C)cc1	58.8 µM	
COc1ccc(-n2c(C)cc(CNCc3ccc(CN(C)C)cc3)c2C)cc1	12.7 µM	86%
COc1ccc(-n2c(C)cc(C(=O)NCc3ccc(CN(C)C)cc3)c2C)cc1	35.4 µM	
CN(C)Cc1ccc(CNCc2cnn(-c3ccccc3)n2)cc1	1.41 µM	128%
CCCCCCCCCCCC[N+](C)(C)[O-]	2.15 µM	84%
